The source made the active and inactive calls. The calls are words filed in the database; no cut-off is given here.
molecular target: Amyloid-beta precursor protein (Homo sapiens) (UniProt P05067); assay: Inhibition of HFIP-pretreated amyloid beta (1 to 42) (unknown origin) aggregation assessed as suppression of amyloid beta aggregation at 50 uM incubated for 24 hrs by Thioflavin T based fluorescence assay; format: cell-based
Sequence (P05067 whole entry): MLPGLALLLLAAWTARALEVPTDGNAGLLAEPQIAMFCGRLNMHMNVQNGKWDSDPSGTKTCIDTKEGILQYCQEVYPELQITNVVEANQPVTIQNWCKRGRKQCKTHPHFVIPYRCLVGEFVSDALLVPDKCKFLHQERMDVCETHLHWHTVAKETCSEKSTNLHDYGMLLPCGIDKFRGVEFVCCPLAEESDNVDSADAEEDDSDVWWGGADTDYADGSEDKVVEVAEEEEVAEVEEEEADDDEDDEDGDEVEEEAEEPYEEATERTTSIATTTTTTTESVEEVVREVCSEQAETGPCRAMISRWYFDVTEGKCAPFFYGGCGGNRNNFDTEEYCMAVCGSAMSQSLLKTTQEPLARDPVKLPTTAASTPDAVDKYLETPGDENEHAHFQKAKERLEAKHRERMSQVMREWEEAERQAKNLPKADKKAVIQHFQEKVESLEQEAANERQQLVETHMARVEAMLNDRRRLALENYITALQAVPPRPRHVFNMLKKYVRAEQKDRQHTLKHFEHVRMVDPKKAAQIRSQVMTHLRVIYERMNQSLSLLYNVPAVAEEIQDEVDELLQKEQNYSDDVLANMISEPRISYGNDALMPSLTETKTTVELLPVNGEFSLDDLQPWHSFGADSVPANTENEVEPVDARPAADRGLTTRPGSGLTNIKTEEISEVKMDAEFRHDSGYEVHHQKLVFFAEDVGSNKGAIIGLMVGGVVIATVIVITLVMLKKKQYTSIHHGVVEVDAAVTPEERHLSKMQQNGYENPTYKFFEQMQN

| inhibition | Compound |
| --- | --- |
| Active | Cc1oc(=O)c2c(c1C)O[C@@]1(C)[C@H](O)[C@H](O)[C@H]3[C@@](C)(CC[C@H]4C(C)(C)[C@@H](O)CC[C@@]43CO)[C@@H]1C2 |
| Active | Cc1oc(=O)c2c(c1C)O[C@@]1(C)[C@H](O)[C@H](O)[C@H]3[C@@](C)(CC[C@H]4C(C)(C)[C@@]5(O)CC[C@@]43CO5)[C@@H]1C2 |
| Active | Cc1oc(=O)c2c(c1C)O[C@@]1(C)[C@H](O)[C@H](O)[C@@H]3[C@@]4(C)CCC(=O)C(C)(C)[C@@H]4CC[C@@]3(C)[C@@H]1C2 |

From ChEMBL document CHEMBL5131449, “Synthetic Biology-Based Discovery of Diterpenoid Pyrones from the Genome of Eupenicillium shearii” (J Nat Prod, 2022)
